Legend:
SK23-MEL cells [1] = assay: Melanin content; assay type: cell-based, human; settings: 7 μM, 48 hrs, p < 0.05
Description: (§1) Cells (1×10^6) were lysed in 1M NaOH at 100°C, for 1 hour and then centrifuged at 15,000 g, for 20 minutes. […] Tyrosinase activity was examined by measuring spectrophotometrically at 475 nm the rate of L-DOPA oxidation to dopachrome over 1 hour at 37°C. Cells [1×10^6 in 40 μl of 20 mM potassium phosphate buffer (pH 6.8) containing 1% Triton X-100 and 1 mM PMSF] were disrupted by freezing and thawing and centrifuged at 15,000 g for 20 minutes at 4°C. The assay was started by addition of 100 μl of 2 mg/ml L-DOPA to 40 μl of supernatant. Tyrosinase activity was expressed as change in absorbance, per hour, per 10^6 cells.

SK23-MEL cells [2] = assay: Tyrosinase activity; assay type: cell-based, human; settings: 7 μM, 48 hrs, p < 0.005
Description: as §1

A375 cells = assay: JNK phospho-activation (Western blot); assay type: cell-based, human; settings: A375, 10 μM
Description: The cell pellet obtained at each time point was lysed as previously reported and the protein concentration was determined using the Lowry colorimetric assay. Proteins (40 μg) were loaded on 12% SDS-polyacrylamide gel and transferred onto a PVDF membrane (GE Healthcare, Chalfont St. Giles, UK). Anti-P-JNK (Thr183 Tyr185) (Cell Signaling, Beverly, MA, USA), anti-JNK (Cell Signaling) and anti-β actin were used as primary antibodies. […] The ImageJ software was used to analyze the band intensities.

[3] = tested on: SK23-MEL human melanoma cells; assay: SK23-MEL cellular xenograft model, antitumor efficacy; assay type: in vivo, mice; settings: 8 mg/kg/day i.v. or oral, q1dx5 three weeks
Description: SK23-MEL and G-361 cells were injected s.c. (in both cases, 1×10^6) into the right flank of NOD/SCID and SCID male mice, respectively. Animals were randomly divided in groups of 6 mice and treatments were started at day 10 (SK23-MEL) and 14 (G-361), when tumors were clearly palpable.
Primary tumor growth was determined for all animals by caliper measurement (minor and major axis length), three times per week, until they were sacrificed. Primary tumor volume was determined using the following equation: V (cm^3)=(α^2×β)/2 (Eq. 3)
The efficacy of the treatment was also analyzed by calculation of the percentage of Increase in Life Span (% ILS), since this analysis gives an evidence of clinical potency. Survival endpoint for each animal was fixed at the day when tumor volume reached 1.0 cm^3 (A375) or 0.4 cm^3 (SK23-MEL and G-361), and data were used to plot the relative Kaplan-Meier curves. Treatment efficacy was then evaluated by comparing the Median Survival Time (MST) of treated group with the MST of control group, and expressed as percentage of ILS: % ILS=[100×(MSTtreated group)/(MSTcontrol group)]−100 (Eq. 4)
Treatment was considered effective when % ILS > 20%.

GSTM2-2 = biological target: T1, GSTM2-2 (Homo sapiens, UniProt P28161); assay: Inhibition of GSTM2-2 conjugation activity; assay type: biochemical; settings: GSTM2-2 5 nM
T1 construct: made in house; host or cells: Escherichia coli
T1 sequence (P28161 1-218): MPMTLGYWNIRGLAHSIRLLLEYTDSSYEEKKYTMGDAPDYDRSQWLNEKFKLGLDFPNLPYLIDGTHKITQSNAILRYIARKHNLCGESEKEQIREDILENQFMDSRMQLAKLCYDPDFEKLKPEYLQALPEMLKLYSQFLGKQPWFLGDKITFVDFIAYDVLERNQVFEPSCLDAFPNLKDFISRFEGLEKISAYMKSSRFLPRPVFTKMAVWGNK
Description: Human GSTM2-2, GSTP1-1, JNK1a2 and TRAF2 were expressed in Escherichia coli and purified as previously described; protein concentration was determined using the Lowry colorimetric assay. Unless specified otherwise, all chemicals were purchased from Sigma-Aldrich S.r.l. (Milan, Italy).
GST activity was determined spectrophotometrically at 340 nm (ε = 9,600 M^−1 cm^−1), as previously reported. Inhibition experiments were performed by measuring GSTP1-1 (20 nM) or GSTM2-2 (5 nM) activities in the presence of various amounts of the selected NBD derivative (from 0.1 to 20 μM with GSTP1-1, and from 0.005 and 1 μM with GSTM2-2). Fifty percent inhibitory concentration (IC50) values were calculated by fitting the data to Equation 1, where ν is the percentage of the saturated binding sites; [P]t is the total GST concentration and [L]t is the total inhibitor concentration, assuming a 1:1 interaction stoichiometry between the inhibitor and one GST subunit, as well as that the binding sites are equal and independent.

## O=[N+]([O-])c1ccc(SCCOCCOCCO)c2nonc12 [MC3181, 2-(2-(2-((7-nitrobenzo[c][1,2,5]oxadiazol-4-yl)thio)ethoxy)ethoxy)ethanol]
SK23-MEL cells [1]
  melanin content: significant increase
SK23-MEL cells [2]
  tyrosinase activity: significant increase
A375 cells
  JNK phosphorylation: sustained increase in JNK phosphorylation
  start of the increase in JNK phosphorylation after addition of the drug: ≤ 1 h
[3]
  ILS: < 20%
  tumor growth: a certain degree of delay in tumor growth
GSTM2-2
  IC50: 81 ± 13 nM

Reference: paper PMC4414177, “A novel orally active water-soluble inhibitor of human glutathione transferase exerts a potent and selective antitumor activity against human melanoma xenografts” (Oncotarget, 2015)
